In this experiment the test system is H460 cells. As to the kind of experiment: Cell cycle G2/M arrest, PI staining and flow cytometry. It is filed as cell-based. The procedure:
• 1) H460/HPAF-II cell suspensions were added to a 24-well plate, with a cell density of 100000 cells/well and 995 µL of medium per well. • 2) The cells were cultured overnight in a 37°C, 5% CO2 incubator. • 3) Compound Treatment
24 hours after cell plating, according to the protocol, the experimental groups for each cell line were as follows: Monotherapy: 24 hours after cell plating, 5 µL of test compounds at different concentrations was added: 1% DMSO, 5 µM Nutlin-3, and 0.1 nM AST-3424. The plate was gently shaken to ensure even mixing, and then placed in a 37°C, 5% CO2 incubator.
• Cells were pretreated with AST-3424 for 2 hours, and then co-treatment with Nutlin-3 for 24 hours; • cells were pretreated with Nutlin-3 for 2 hours, and then co-treatment with AS -3424 for 24 hours; and • cells were co-treated with AST-3424 and Nutlin-3 for 24 hours. • 4) The cells were digested, centrifuged at 1000 g at 4°C, washed once with pre-cooled PBS, centrifuged at 1000 g at 4°C, and fixed with 1 mL of pre-cooled 70% ethanol at - 20°C overnight. • 5) The cells were centrifuged at 3000 g at 4°C, washed once with pre-cooled PBS (phosphate buffer), and centrifuged at 3000g at 4°C. PI staining solution was prepared. The cells were stained at 37°Cfor 30 minutes (protected from light), and stored in an ice bath (protected from light). The cells were detected using a flow cytometer on the same day, and the proportions of cells in different cell cycle phases was analyzed using FlowJo.
The remaining operations were similar to those of the above experiment, and the compound treatment was as follows: […]

For `C[C@H](OP(=O)(N1CC1)N1CC1)c1ccc([N+](=O)[O-])c(Oc2cccc(C(=O)N(C)C)c2)c1` [AST-3424], for the setting “0.1 nM AST-3424, 5 µM Nutlin-3, 24 hours, combination: AST-3424 added first (Figure 9)”, the “cell cycle (G0/G1, S, G2/M phases)” value was “does not significantly alter the cell cycle”. Besides, under “0.03-1 nM AST-3424 ± 5 µM Nutlin-3 (AST-3424 pre-treatment 2 hours), second experiment (Figure 10)”, the “G2/M cell cycle arrest” value is on record as “induces concentration-dependent G2/M cell cycle arrest”.

The record behind these values is patent EP4796125A1, “TREATMENT OF PATIENT WITH NEGATIVE P53 GENE MUTATION, POSITIVE KRAS GENE MUTATION AND POSITIVE BRCA MUTATION” (Ascentawits Pharmaceuticals, Ltd., priority 2023, dated 2025).
